Assay results published in patent publication US20200256880A1, “Neuronal Assay Method Involving Calcineurin” (The Broad Institute, Inc., priority 2017, published 2020).

What was measured:
[1] = test system: S469 CNAα phosphorylation in rat hippocampal neurons; assay: Pharmacological blockade of glutamate receptors and L-type Ca channels, with or without bicuculline; phospho-S469 CNAα at synapsin-marked synapses; type: cell-based; settings: baseline and bicuculine-induced; localized to synapses marked by synapsin
Source text: (A) Rat hippocampal neurons grown in 96-well plates were stimulated with various plasticity induction paradigms or modulators of neuronal activity levels, fixed and stained for phospho-S469 CNAα and MAP2, and imaged. (B) Quantification of phospho-S469 CNAα levels within MAP2-positive dendrites in wells shown in (A). (C) Quantification of total CNAα levels within MAP2-positive dendrites in wells shown in (A). (D) Rat hippocampal neurons were pretreated with vehicle, DNQX, nifedipine, […], or a combination of all three (with group listed in this order from left to right in panel (D)) prior and after treatment with bicuculline. Neurons were then fixed and stained for phospho-S469 CNAα and synapsin and imaged on a Phenix® (Perkin Elmer) imaging system, a high content imaging system. Shown is the phospho-S469 CNAα levels localized to synapses marked by synapsin. Bic=bicuculine. *≤0.05 compared to control sample, **<0.01, ***<0.001, and ****<0.0001 compared to control sample. For FIG. 7D, statistics were derived by comparing the pharmacological condition with the equivalent control condition, either vehicle or bicucculine treated.
Next, the dependency of S469 CNAα phosphorylation was assessed when neurons were treated by blockade of glutamate receptors and L-type Ca channels using pharmacological blockers. […]

[2] = test system: phospho-S469 CNAα in rat hippocampal neurons; type: cell-based
[3] = test system: phosphorylated RII (pRII) peptide; assay: Calcineurin phosphatase enzyme assay with pRII peptide; type: biochemical, human; settings: recombinant CNAα/CNB1 holoenzyme, pRII substrate, in the presence of CaM
Procedure: To investigate whether phosphorylation of CNAα Ser469 modifies calcineurin phosphatase activity, a phosphomimetic mutant was generated by replacing S469 with E469 in purified, recombinant human calcineurin. The S469E mutant or wild type of CNAα was co-expressed with CNB1 subunit in E. coli and co-purified. Both mutant and wild type show similar expression level and purity. Their concentrations were quantified by OD280 and CaM titration.
Enzyme activity was then assessed. CN enzymatic parameters for wild-type and S469E mutant proteins were measured using phosphorylated RII (pRII) peptide in a buffer containing 50 mM HEPES (pH=7.0), 1 mM CaCl2, 1 mM MnCl2, 0.5 mM dithiothreitol (DTT), and 0.1 mg/ml bovine serum albumin (BSA). Phosphate product release was monitored at 620 nm on SpectraMax_i3x spectrophotometer (Molecular Devices) with a 96-well plate-based calcineurin phosphatase assay kit (Abcam). Briefly, CN (40 nM) and CM (200 nM) were pre-mixed in 2× assay buffer. The reaction was initiated by addition of 25 μl pRII substrate (in H2O) to equal volume of CN/CaM mixture. The final concentration of pRII used ranged from 12 μM to 750 μM. Reaction was stopped by green quench reagent after 20 minutes. Km was determined using nonlinear regression of the Michaelis-Menten equation.

| Compound | levels of phospho-S469 CNAα within dendrites [2] | also measured |
| --- | --- | --- |
| NC(CCCP(=O)(O)O)C(=O)O (stereo not drawn) [AP5] |  | S469 CNAα phosphorylation [1]: most strongly reducing |
| CC(C)NCC(O)c1ccc(O)c(O)c1 (stereo not drawn) [isoproterenol] | significantly and robustly increased |  |
| NC1=N[C@H](O)[C@H]2[C@H]3O[C@]4(O)O[C@@H]([C@@H](O)[C@@]2(N1)[C@@H]4O)[C@]3(O)CO [TTX, tetrodotoxin] | decrease |  |
| N[C@H](C(=O)O)c1cc(O)cc(O)c1 [DHPG, dihydroxypheylglycine] | significantly and robustly increased |  |
| CN[C@H](CC(=O)O)C(=O)O [NMDA, N-methyl-D-asparatate] | significantly and robustly increased |  |
| S469E: phosphomimetic mutant of recombinant human CNAα (S469 replaced with E469) co-expressed with CNB1 |  | Km [3]: 256 µM |
